Reference: patent US7799530B2, “Genetic polymorphisms associated with cardiovascular disorders and drug response, methods of detection and uses thereof” (Celera Corporation, priority 2005, dated 2010)

Test system: MI / coronary events in Scottish men with hypercholesterolemia
Experiment: WOSCOPS nested case-control study: MI/CHD in pravastatin- vs placebo-treated patients stratified by SNP genotype
Format: in vivo, human
Conditions: for OR, CHD case vs control, Matched: placebo = ref 1.00, cases and controls matched for age and smoking; for OR, CHD case vs control, Adjusted: placebo = ref 1.00, matched and adjusted for hypertension, diabetes, BMI, LDL-C, HDL-C; for Risk Reduction by Statin (Pravastatin vs. Placebo) OR: odds ratio of MI, pravastatin- vs placebo-treated, heterozygous carriers of hCV3054799 only
Source text: In order to identify genetic markers associated with acute coronary events (e.g. MI, stroke, unstable angina, congestive heart failure, etc.) or response to statin treatment for the prevention of coronary events, samples were genotyped in two clinical trials: the Cholesterol and Recurrent Events (CARE) study (a randomized multicentral double-blinded trial on secondary prevention of acute coronary events with pravastatin; Sacks et al., Am. J. Cardiol. 68: 1436-1446[1991]), and the West of Scotland Coronary Prevention Study (WOSCOPS) study (Shepherd et al., N Eng J Med 333 (20), pp. 1301-7, Nov. 16, 1995; Packard et al., N Eng J Med 343 (16), pp. 1148-55, Oct. 19, 2000).
Genetic markers identified as associated with acute coronary events or response to statin treatment for the prevention of coronary events in the CARE samples were also genotyped in a second sample set, the West of Scotland Coronary Prevention Study (WOSCOPS). The design of the original WOSCOPS cohort and the nested case-control study have been described (Shepherd et al., N Eng J Med 333 (20), pp. 1301-7, Nov. 16, 1995; Packard et al., N Eng J Med 343 (16), pp. 1148-55, Oct. 19, 2000). The objective of the WOSCOPS trial was to assess pravastatin efficacy at reducing risk of primary MI or coronary death among Scottish men with hypercholesterolemia (fasting LDL cholesterol>155 mg/dl). Participants in the WOSCOPS study were 45-64 years of age and followed for an average of 4.9 years for coronary events. The nested case-control study included as cases all WOSCOPS patients who experienced a coronary event (confirmed nonfatal MI, death from coronary heart disease, or a revascularization procedure; N=580). Controls were age- and smoking-matched unaffected patients. All individuals included in the study had signed informed consent forms and the study protocol was approved by the IRBs. DNA was extracted and genotyped as described above.
The association of hCV3054799 with risk of MI in patients was tested in two clinical trials, CARE and WOSCOPS, with patients receiving treatment with either pravastatin or placebo. CARE was a secondary prevention trial (i.e., recurrent MI as endpoint) and WOSCOPS was a primary prevention trial. […] The analysis in WOSCOPS (a nested case-control study) was performed using the MI as an endpoint.
In both the CARE and WOSCOPS studies, an association analysis was performed for each of the two modes of inheritance, dominant and recessive. Additionally, a genotypic test (heterozygote v. major homozygote) and an allelic test of association were performed using Fisher's exact method. Estimates of odds ratios and corresponding ninety-five percent confidence intervals were calculated. The significance of the disease association for hCV3054799 with the overall (unstratified) population, and with the placebo- or pravastatin-treated patients are indicated in Table 8. […] In patients that are heterozygous carriers of the minor allele, the odds ratio for risk of MI relative to patients with no minor allele is 1.7, with a P value below 0.01 both studies. The odds ratio is approximately the same (1.6-1.7) when calculated for the dominant mode of inheritance (a genotype with one or two minor alleles vs. none), with a P value less than or equal to 0.01 in both studies.
Also analyzed was whether hCV3054799 is associated with response to statin treatment (specifically, a decreased risk of MI as a result of treatment with pravastatin). […] Heterozygous carriers in the placebo treatment group were used as a reference in determining the odds ratios. […] For comparison, the odds ratio for association of this SNP with MI risk in placebo-treated carriers is also presented, under the heading “MI/RMI risk estimation” (data from Table 8; again, heterozygous carriers).
In analyzing the CARE patients, statistical analysis was performed with SAS version 9. […]

## CC[C@H](C)C(=O)O[C@H]1C[C@H](O)C=C2C=C[C@H](C)[C@H](CC[C@@H](O)C[C@@H](O)CC(=O)O)[C@H]21 [pravastatin]
KIF6 hCV3054799 AA
  OR, CHD case vs control, Matched: 0.94
  OR, CHD case vs control, Adjusted: 0.91
KIF6 hCV3054799 GG + GA
  OR, CHD case vs control, Matched: 0.50
  OR, CHD case vs control, Adjusted: 0.50
  Risk Reduction by Statin (Pravastatin vs. Placebo) OR: approximately 0.5
Listed as Pravastatin
  Risk Reduction by Statin (Pravastatin vs. Placebo) OR: 0.45
